Legend:
Kallikrein-5 [1] = target: T1, Kallikrein-5 (Homo sapiens, UniProt Q9Y337); assay: Inhibition of recombinant human FLAG-tagged KLK5 expressed in baculovirus infected sf9 insect cells using (Tos-Gly-Pro-Arg)2[R110].2TFA as substrate measured every 30 secs intervals for 5 mins by Rhodamine110 dye-based fluorescence assay
T1 sequence (Q9Y337 whole entry): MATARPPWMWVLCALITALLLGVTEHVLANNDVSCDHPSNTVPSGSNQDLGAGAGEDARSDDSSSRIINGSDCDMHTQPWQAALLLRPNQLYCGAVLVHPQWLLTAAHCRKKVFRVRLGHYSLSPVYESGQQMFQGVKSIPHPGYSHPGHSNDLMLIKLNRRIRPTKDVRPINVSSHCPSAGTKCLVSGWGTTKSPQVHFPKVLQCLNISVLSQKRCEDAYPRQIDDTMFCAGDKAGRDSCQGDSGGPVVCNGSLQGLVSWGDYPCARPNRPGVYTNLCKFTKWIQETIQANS

Kallikrein-1 = Kallikrein-1 (Homo sapiens, UniProt P06870); assay: Inhibition of recombinant human N-terminal his-tagged KLK1 (19 to 262 residues) expressed in baculovirus infected sf9 insect cells using R110 labelled GSK3162232A as substrate measured every 30 secs intervals for 5 mins by Rhodamine110 dye-based fluorescence assay
Kallikrein-1, sequence (P06870 whole entry, the tested form may be a part): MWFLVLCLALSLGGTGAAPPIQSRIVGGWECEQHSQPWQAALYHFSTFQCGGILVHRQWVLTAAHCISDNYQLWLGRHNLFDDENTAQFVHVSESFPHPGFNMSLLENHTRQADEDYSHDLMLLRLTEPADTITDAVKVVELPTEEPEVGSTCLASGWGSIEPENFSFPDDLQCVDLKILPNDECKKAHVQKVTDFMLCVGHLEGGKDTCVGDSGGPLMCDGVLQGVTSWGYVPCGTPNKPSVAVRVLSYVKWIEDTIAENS

Homo sapiens = organism: Homo sapiens; assay: Selectivity ratio of IC50 for recombinant human N-terminal his-tagged KLK1 (19 to 262 residues) to IC50 for recombinant human FLAG-tagged KLK5
[2] = Dissociation constant, pKa of phenol group of the compound by UV spectrophotometric analysis; assay type: physicochemical
Kallikrein-5 [3] = target: T1, Kallikrein-5; assay: Inhibition of recombinant human KLK5 using S-2288 substrate
Kallikrein-7 = Kallikrein-7 (Homo sapiens, UniProt P49862); assay: Inhibition of recombinant human KLK7 using S-2586 substrate
Kallikrein-7, sequence (P49862 whole entry): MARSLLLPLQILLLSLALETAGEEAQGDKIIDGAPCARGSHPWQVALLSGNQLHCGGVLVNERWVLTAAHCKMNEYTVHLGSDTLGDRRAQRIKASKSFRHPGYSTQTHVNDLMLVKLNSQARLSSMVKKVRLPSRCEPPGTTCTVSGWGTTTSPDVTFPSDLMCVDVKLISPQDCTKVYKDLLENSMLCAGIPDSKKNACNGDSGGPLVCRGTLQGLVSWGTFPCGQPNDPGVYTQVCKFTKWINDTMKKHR

Kallikrein-5 [4] = target: T1, Kallikrein-5; assay: Inhibition of KLK5 (unknown origin) using Boc-Val-Pro-Arg-AMC substrate incubated for 15 mins by fluorescence assay
[5] = target: T2, Kallikrein-14 (Homo sapiens) (UniProt Q9P0G3); assay: Inhibition of KLK14 (unknown origin) at 100 uM using Boc-Val-Pro-Arg- AMC substrate incubated for 15 mins by fluorescence assay
T2 sequence (whole entry): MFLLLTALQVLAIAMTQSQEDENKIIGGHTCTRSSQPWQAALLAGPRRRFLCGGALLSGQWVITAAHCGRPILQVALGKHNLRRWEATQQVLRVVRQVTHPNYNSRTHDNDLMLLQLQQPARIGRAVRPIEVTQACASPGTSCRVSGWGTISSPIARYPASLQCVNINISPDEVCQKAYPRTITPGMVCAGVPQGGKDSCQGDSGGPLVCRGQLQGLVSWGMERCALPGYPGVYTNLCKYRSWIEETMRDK

SMILES	IC50 (Kallikrein-5 [1])	IC50 (Kallikrein-1)	further results
Cc1cc(C(=N)N)ccc1NC(=O)c1ccccc1O	12.6 µM	5.01 µM	
Cn1c(C(=O)Nc2ccc(C(=N)N)cc2)nc2ccccc21	12.6 µM	200 µM	Ratio IC50 (Homo sapiens): 10
N=C(N)c1ccc(NC(=O)c2ccccc2O)c(F)c1	2.51 µM	3.16 µM	
N=C(N)c1ccc(NC(=O)c2ccccc2O)cc1	6.31 µM	12.6 µM	pKa [2]: 6.8
N=C(N)c1ccc(NC(=O)N2CCCNC2=O)cc1	10 µM	631 µM	Ratio IC50 (Homo sapiens): 100
Cn1cccc(C(=O)Nc2ccc(C(=N)N)cc2)c1=O	158 µM	501 µM	
CCOc1cc2c(=O)oc(-c3ccccc3OC)nc2cc1OC			IC50 (Kallikrein-5 [3]): 0.2 µM; IC50 (Kallikrein-7): 0.048 µM
N=C(N)c1ccc(NC(=O)C2CCCNC2=O)cc1 (stereo unspecified)	10 µM	501 µM	Ratio IC50 (Homo sapiens): 100
O=C1Oc2ccccc2CC1C(=O)Oc1nccc2ccccc12 (stereo unspecified)			IC50 (Kallikrein-5 [4]): 7 µM; inhibition [5]: 61%

Continued, in another order:

IC50 (Kallikrein-5 [1])	IC50 (Kallikrein-1)	SMILES	further results
10 µM	1.26 µM	COc1cccc(C(=O)Nc2ccc(C(=N)N)c(Cl)c2)c1O	
0.501 µM	0.316 µM	COc1cccc(C(=O)Nc2ccc(C(=N)N)cc2)c1O	pKa [2]: 6.6
5.01 µM	0.126 µM	CCOc1cccc(C(=O)Nc2ccc(C(=N)N)cc2)c1O	
20 µM	12.6 µM	N=C(N)c1ccc(NC(=O)c2ccccc2O)cc1F	
7.94 µM	3.16 µM	Cc1cccc(C(=O)Nc2ccc(C(=N)N)cc2)c1O	pKa [2]: 6.8
2.51 µM	0.631 µM	N=C(N)c1ccc(NC(=O)c2cccc(Cl)c2O)cc1	pKa [2]: 5
1 µM	0.251 µM	COc1cccc(C(=O)Nc2ccc(C(=N)N)c(F)c2)c1O	
2.51 µM	3.98 µM	N=C(N)c1ccc(NC(=O)c2cccc(O)c2O)cc1	

Reference: ChEMBL document CHEMBL4422656, “Kallikrein 5 inhibitors identified through structure based drug design in search for a treatment for Netherton Syndrome” (Bioorg Med Chem Lett, 2019)
